Measurements published in publication PMC9573943, “Contribution of the 12–17 hydrophobic region of islet amyloid polypeptide in self-assembly and cytotoxicity” (Frontiers in Molecular Biosciences, 2022).
Bridge positions count the residues as written; N and C are the ends. Ends that are not written are not given here.

Tests used:
INS-1E cells [1] = assay: Live/Dead viability assay (calcein-AM / ethidium homodimer-1, fluorescence microscopy); assay type: cell-based, Rat; settings: 25 μM freshly solubilized peptide, 24 h, calcein-AM (green, live) and ethidium homodimer-1 (red, dead)
Protocol: (§1) Rat INS-1E cells were cultured in treated black-wall clear-bottom 96-well plates at a density of 25,000 cell/well in RPMI-1640 medium supplemented with 10% FBS, 2 mM L-glutamine, 100 U/ml penicillin, 100 μg/ml streptomycin, 10 mM HEPES, 1 mM sodium pyruvate and 50 μM β-mercaptoethanol. After 48 h of incubation at 37°C in 5% CO2, cells were treated with 50 μL of peptide freshly dissolved in 20 mM Tris-HCl, pH 7.4. […] Cell viability (%) was calculated from the ratio of the fluorescence of the treated cells to the vehicle-treated cells. Data of at least five assays performed with different peptide lots were averaged and expressed as the mean ± S.D. Statistical analysis was performed using Student’s t test, and statistically significant difference was established at (*) p < 0.05; (**) p < 0.005; (***) p < 0.0005. For Live/Dead viability assay, cells were plated in 12-well plates at density of 250,000 cell/well for 48 h before treatment with 25 μM peptide.

INS-1E cells [2] = assay: Cell viability by resazurin reduction; assay type: cell-based, Rat; settings: 24 h, at least five assays; for Cell viability: 50 μM freshly dissolved peptide, relative to vehicle-treated cells; for Cytotoxicity compared with unmodified IAPP, in words: freshly dissolved peptide up to 50 μM
Protocol: as §1

[3] = Peptide self-assembly under fully quiescent conditions (CD, ThT and ANS fluorescence, TEM, AFM); assay type: physicochemical; settings: 50 μM peptide; for Assemblies observed by TEM after 48 h incubation: negative stain TEM; for ThT fluorescence of incubated peptide, in words: diluted to 25 μM with 40 μM ThT; for Incubation time at which the random coil to β-sheet conformational transition is seen (far-UV CD) / Secondary conformation / conformational transition over incubation (far-UV CD), in words: fully quiescent; for Incubation time at which the random coil to β-sheet conformational transition is seen (far-UV CD): microtubes, diluted to 25 μM for CD; for Secondary conformation / conformational transition over incubation (far-UV CD), in words: up to 7 days
Protocol: Solutions were prepared by dissolving the peptide at a concentration of 50 μM in 20 mM Tris-HCl, pH 7.4, and were incubated at room temperature without agitation in 1.5 ml Eppendorf microtubes. For IAPP12-17, the lyophilized peptide was dissolved in 20 mM acetate pH 6.5 in the presence of 3% DMSO, or HFIP, at a final concentration of 500 μM and the peptide solution was incubated at 37 °C under constant rotational agitation.
At the indicating time of incubation, peptide solutions were diluted to 25 μM in presence of 40 μM ThT, or 25 μM 8-anilino-1-naphthalenesulfonic acid (ANS). Fluorescence was measured in 10-mm pathlength microcells using a PTI QuantaMaster spectrofluorometer. For ThT, excitation was set at 440 nm, and the emission spectrum from 450 to 550 nm was recorded. For ANS, the excitation was set at 355 nm, and the emission scan was recorded from 385 to 585 nm.
After incubation, peptide solutions were diluted in water to 25 μM and incorporated into a 2-mm path length quartz cell. For IAPP12-17, the solution was diluted to 150 μM. Far-UV CD spectra were recorded from 190 to 260 nm using a Jasco J-815 CD spectropolarimeter at 25°C. The wavelength step was set at 0.5 nm with an average time of 10 s per scan at each wavelength. Spectra were background-subtracted with buffer solution. Raw data were converted to mean residue ellipticity (MRE): MRE=Mean residue weight (g/mol)X CD signal (deg)/10 X pathlength (cm) X peptide concentration (g/mL)
After incubation, peptide solutions were diluted to 10 μM, or 100 μΜ for IAPP12-17, before being applied on glow-discharged carbon films on 300-mesh copper grids. Samples were adsorbed and negatively stained with 1.5% uranyl formate for 45 s. Images were recorded using a FEI Tecnai G2 Spirit Twin microscope operating at 120 kV and equipped with a Gatan Ultrascan scan 4,000 4k × 4k CCD camera system.
After incubation, peptide solutions were diluted in 1% acetic acid to a concentration of 7.5 μΜ. […] Images were recorded using Veeco/Bruker multimode AFM instrument using ScanAsyst-air mode with a silicon tip (2–12 nm tip radius, 0.4 N/m force) on a nitride lever. Images were taken at 0.977 Hz and 512 scan/min.

[4] = Lipid membrane leakage (calcein-loaded LUVs); settings: 25 μM peptide, 500 μM phospholipids; for Maximum membrane leakage (calcein fluorescence, % of that with Triton X-100): LUVs DOPC:DOPG 9:1, 20 mM Tris-HCl, 150 mM NaCl, pH 7.4, read every 10 min over 24 h, IAPP value reached after 10 h, at least four assays
Protocol: Large unilamellar vesicles (LUVs) were assembled from 1,2-Dioleoyl-sn-glycero-3-phosphocholine (DOPC) and 2-dioleoyl-sn-glycero-3-phospho-(1′-rac-glycerol) (DOPG) at a 9:1 M ratio (DOPC:DOPG). Lipids were solubilized in 100% chloroform, which was then evaporated. […] The lipid mixture was freeze-thawed five times before being extruded through a 100 nm membrane for 20 cycles. Nonencapsulated calcein was removed by gel filtration using a Sephadex G25 fine resin and 20 mM Tris-HCl, 150 mM NaCl, pH 7.4, as elution buffer. Final lipid concentration was determined by a colorimetric assay ([Babych et al., 2021]). Lyophilized peptides were solubilized in 20 mM Tris-HCl, 150 mM NaCl, pH 7.4, at 50 μM prior to dilution into calcein-LUVs, to reach 25 μM peptide and 500 μM phospholipids. Fluorescence was monitored in sealed black-wall, clear-bottom 96-well non-binding surface plates with 100 μL/well. […] 100% leakage (Fmax) was determined with 0.2% Triton X-100 and LUV leakage was reported using:
Membrane leakage (%) = (F−F baseline)/(F max−F baseline)
Data of at least four assays with different peptide lots were averaged and expressed as the mean ± S.D. Statistical analysis was performed using Student’s t test, and statistically significant difference was established at (*) p < 0.05; (**) p < 0.005; (***) p < 0.0005.

[5] = Kinetics of amyloid formation monitored by ThT fluorescence; assay type: physicochemical; settings: 25 μM peptide, 40 μM ThT, 20 mM Tris-HCl pH 7.4, 25°C, no agitation, nonbinding surface 96-well plate, read every 10 min, lag time = T50 - 2/k, mean ± S.D. of at least six assays
Protocol: Aggregation mixtures were prepared by dissolving the lyophilized peptide at a concentration of 50 μM in 20 mM Tris-HCl, pH 7.4. Assays were performed at 25°C without stirring in sealed black-wall clear-bottom 96-well nonbinding surface plates with 100 μL/well. Final peptide concentrations were 12.5 and 25 μM, and thioflavin T (ThT) concentration was fixed at 40 μM. Fluorescence was measured every 10 min (excitation: 440 nm, emission: 485 nm) and data from triplicate wells were averaged, corrected by subtracting the blank control, and plotted as ThT fluorescence vs. time. Data were normalized with maximum ThT fluorescence intensity obtained for unmodified IAPP. Data were fitted to a sigmoidal Boltzmann model: Y=Yo+(Ymax−Yo)/1+e^−(T−T50)/ K where T 50 is the time required to reach half of the maximum fluorescence intensity, k is the apparent first-order constant, and Y max and Y 0 are the maximum and initial ThT fluorescence values. Lag time corresponds to T50 - 2/k. Data of at least six assays performed with different peptide lots were averaged and expressed as the mean ± S.D. Statistical analysis was performed using Student’s t test, and statistically significant difference between IAPP and analogs was established at (*) p < 0.05; (**) p < 0.005; (***) p < 0.0005.

[6] = 20 mM Tris-HCl pH 7.4, quiescent
[7] = 20 mM Tris-HCl pH 7.4, room temperature

| Compound | Cell death in Live/Dead assay, in words (INS-1E cells [1]) | Cell viability (INS-1E cells [2]) | Cytotoxicity compared with unmodified IAPP, in words (INS-1E cells [2]) | Assemblies observed by TEM after 48 h incubation [3, 6] | ThT fluorescence of incubated peptide, in words [3, 6] | Incubation time at which the random coil to β-sheet conformational transition is seen (far-UV CD) [3, 7] | Maximum membrane leakage (calcein fluorescence, % of that with Triton X-100) [4] | Incubation time at which membrane leakage starts ([4]; LUVs DOPC:DOPG 9:1, pH 7.4) | Lag time of amyloid formation [5] | ANS fluorescence of incubated peptide, in words ([3]; 20 mM Tris-HCl pH 7.4, quiescent, diluted to 25 μM with 25 μM ANS) | Secondary conformation / conformational transition over incubation (far-UV CD), in words [3, 7] | Assemblies observed by AFM after 24 h incubation ([3]; 20 mM Tris-HCl pH 7.4, room temperature, no agitation, 24 h) |
| --- | --- | --- | --- | --- | --- | --- | --- | --- | --- | --- | --- | --- |
| CC[C@H](C)[C@H](NC(=O)[C@H](C)NC(=O)CNC(=O)[C@H](Cc1ccccc1)NC(=O)[C@H](CC(N)=O)NC(=O)[C@H](CC(N)=O)NC(=O)[C@H](CO)NC(=O)[C@H](CO)NC(=O)[C@H](Cc1c[nH]cn1)NC(=O)[C@@H](NC(=O)[C@H](CC(C)C)NC(=O)[C@H](Cc1ccccc1)NC(=O)[C@H](CC(N)=O)NC(=O)[C@H](C)NC(=O)[C@H](CC(C)C)NC(=O)[C@H](CCCNC(=N)N)NC(=O)[C@H](CCC(N)=O)NC(=O)[C@@H](NC(=O)[C@H](C)NC(=O)[C@@H]1CSSC[C@H](NC(=O)[C@@H](N)CCCCN)C(=O)N[C@@H](CC(N)=O)C(=O)N[C@@H]([C@@H](C)O)C(=O)N[C@@H](C)C(=O)N[C@@H]([C@@H](C)O)C(=O)N1)[C@@H](C)O)C(C)C)C(=O)N[C@@H](CC(C)C)C(=O)N[C@@H](CO)C(=O)N[C@@H](CO)C(=O)N[C@H](C(=O)N[C@@H](CC(N)=O)C(=O)N[C@H](C(=O)NCC(=O)N[C@@H](CO)C(=O)N[C@@H](CC(N)=O)C(=O)N[C@H](C(=O)N[C@@H](Cc1ccc(O)cc1)C(N)=O)[C@@H](C)O)C(C)C)[C@@H](C)O [IAPP, islet amyloid polypeptide] | sharp increase in the number of red cells and a decrease of green cells | less than 10% | concentration-dependent decrease of metabolic activity | prototypical fibrils | increase of ThT and ANS fluorescence | 24 h | 17% | 5 h | 3.9 ± 1.2 h | – | – | – |
| CC[C@H](C)[C@H](NC(=O)[C@H](C)NC(=O)CNC(=O)[C@H](Cc1ccccc1)NC(=O)[C@H](CC(N)=O)NC(=O)[C@H](CC(N)=O)NC(=O)[C@H](CO)NC(=O)[C@H](CO)NC(=O)[C@H](Cc1c[nH]cn1)NC(=O)[C@@H](NC(=O)[C@H](CC(C)C)NC(=O)[C@H](Cc1ccccc1)NC(=O)[C@H](C)NC(=O)[C@H](C)NC(=O)[C@H](CC(C)C)NC(=O)[C@H](CCCNC(=N)N)NC(=O)[C@H](CCC(N)=O)NC(=O)[C@@H](NC(=O)[C@H](C)NC(=O)[C@@H]1CSSC[C@H](NC(=O)[C@@H](N)CCCCN)C(=O)N[C@@H](CC(N)=O)C(=O)N[C@@H]([C@@H](C)O)C(=O)N[C@@H](C)C(=O)N[C@@H]([C@@H](C)O)C(=O)N1)[C@@H](C)O)C(C)C)C(=O)N[C@@H](CC(C)C)C(=O)N[C@@H](CO)C(=O)N[C@@H](CO)C(=O)N[C@H](C(=O)N[C@@H](CC(N)=O)C(=O)N[C@H](C(=O)NCC(=O)N[C@@H](CO)C(=O)N[C@@H](CC(N)=O)C(=O)N[C@H](C(=O)N[C@@H](Cc1ccc(O)cc1)C(N)=O)[C@@H](C)O)C(C)C)[C@@H](C)O [N14A] | decreased toxicity compared to unmodified IAPP | 50% | reduced IAPP toxicity | dense network of thin fibrils | low ThT fluorescence | 48 h | 50% | – | – | high ANS signal | helical-like conformation with two minima at 206 and 222 nm between 2 and 24 h incubation | only poorly defined fibrils |
| V17A: full-length IAPP with Val17 substituted by Ala (KCNTATCATQRLANFLAHSSNNFGAILSSTNVGSNTY; disulfide 2-7; ends not checked; UniProt P10997 34-70, looked up, variant V17A) | decreased toxicity compared to unmodified IAPP | – | reduced IAPP toxicity | short and poorly defined fibrils | low ThT and ANS binding properties | – | 34% | – | – | – | delayed the conformational transition | – |
